# Data published in ChEMBL document CHEMBL1153292, “Atropisomeric small molecule Bcl-2 ligands: determination of bioactive conformation” (Bioorg Med Chem Lett, 2009).
# Target: Apoptosis regulator Bcl-2 (Homo sapiens, UniProt P10415)
# Test: Inhibition of GST fused Bcl-2 binding to biotinylated 16 mer BH3 peptide by HTRF-LANCE assay
# Sequence of Apoptosis regulator Bcl-2 (P10415 whole entry, the tested form may be a part): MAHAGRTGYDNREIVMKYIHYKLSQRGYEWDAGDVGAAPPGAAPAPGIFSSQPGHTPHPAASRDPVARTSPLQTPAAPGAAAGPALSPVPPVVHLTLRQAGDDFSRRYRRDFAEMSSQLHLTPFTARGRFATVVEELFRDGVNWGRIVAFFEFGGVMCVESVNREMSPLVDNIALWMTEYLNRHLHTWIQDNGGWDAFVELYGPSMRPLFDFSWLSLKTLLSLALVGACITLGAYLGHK
row,IC50,Structure (SMILES)
1,1100 nM,Cc1cccc(-n2nc(C(=O)N(c3ccccc3)c3ccccc3)cc2C)c1C(=O)N1Cc2ccccc2C[C@@H]1CO (atropisomer aR; form 1)
2,600 nM,Cc1cccc(-n2nc(C(=O)N(c3ccccc3)c3ccccc3)cc2C)c1C(=O)N1Cc2ccccc2CC1CO (configuration not stated)
3,6100 nM,Cc1cccc(-n2nc(C(=O)N(c3ccccc3)c3ccccc3)cc2C)c1C(=O)N1Cc2ccccc2C[C@@H]1CO (atropisomer aR; form 2)

# The next lines start with the molecule.
row,Structure (SMILES),IC50
1,CCCCN(CCCC)C(=O)c1nn(-c2cccc(C)c2C(=O)N2Cc3ccccc3C[C@H]2CN)c(C)c1Cl,42 nM
2,CCCCN(CCCC)C(=O)c1cc(C)n(-c2cccc(C)c2C(=O)N2Cc3ccccc3C[C@H]2CN)n1,175 nM
3,Cc1cccc(-n2nc(C(=O)N(c3ccccc3)c3ccccc3)cc2C)c1C(=O)N1Cc2ccccc2C[C@H]1CO (atropisomer aS),210 nM
4,Cc1cccc(-n2nc(C(=O)N(c3ccccc3)c3ccccc3)cc2C)c1C(=O)N1Cc2ccccc2C[C@@H]1CO (atropisomer aR; form 3),390 nM
